Read-outs that look alike come from different tables or passages of the source.
Tests used:
[1] = target: T1, recombinant GST-ALK5 (residues 198-503) (Homo sapiens, UniProt P36897); assay: Alk5 fluorescence polarization assay (displacement of rhodamine green-labelled ligand); assay type: binding
T1 construct: assays using recombinant GST-ALK5 (residues 198-503)
T1 sequence (P36897 198-503): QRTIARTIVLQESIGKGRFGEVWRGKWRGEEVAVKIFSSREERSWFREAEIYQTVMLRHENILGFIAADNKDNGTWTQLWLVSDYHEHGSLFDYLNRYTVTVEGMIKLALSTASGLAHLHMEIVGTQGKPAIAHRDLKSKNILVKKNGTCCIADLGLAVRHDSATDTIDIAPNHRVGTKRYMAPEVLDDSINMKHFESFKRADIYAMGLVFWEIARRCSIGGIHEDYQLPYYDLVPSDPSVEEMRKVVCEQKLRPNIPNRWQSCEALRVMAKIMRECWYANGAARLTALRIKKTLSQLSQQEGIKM
Procedure: Kinase inhibitor compounds conjugated to fluorophores, can be used as fluorescent ligands to monitor ATP competitive binding of other compounds to a given kinase. The increase in depolarization of plane polarized light, caused by release of the bound ligand into solution, is measured as a polarization/anisotropy value.
The compounds were serially diluted (3-fold in 100% DMSO) across the plate to column 11 to yield 11 concentrations for each test compound. Column 12 contained only DMSO.
ALK5 was added to assay buffer containing the above components and 1 nM of the rhodamine green-labelled ligand so that the final ALK5 concentration was 10 nM based on active site titration of the enzyme. The enzyme/ligand reagent (39 μl) was added to each well of the previously prepared assay plates. […] The plates were read immediately on a LJL Acquest fluorescence reader (Molecular Devices, serial number AQ1048) with excitation, emission, and dichroic filters of 485 nm, 530 nm, and 505 nm, respectively. The fluorescence polarization for each well was calculated by the Acquest reader and then imported into curve fitting software for construction of concentration response curves. The normalized response was determined relative to the high controls (1 μl DMSO in column 12, rows A-D) and the low controls (1 μl of control compound in column 12, rows E-H). An IC50 value was then calculated for each compound

[2] = tested on: TGF-β signalling (PAI-1 promoter-luciferase in HepG2 cells); assay: Cellular transcriptional assay: PAI-1 promoter firefly luciferase reporter in cells exposed to TGF-β; assay type: cell-based; settings: HepG2 cells, 1 ng/mL rhTGFβ-1
Procedure: Assay 1 (Cellular Transcriptional Assay)
The assay was performed in HepG2 cells stably transfected with the PAI-1 promoter (known to be a strong TGF-β responsive promoter) linked to a luciferase (firefly) reporter gene. The compounds were selected on their ability to inhibit luciferase activity in cells exposed to TGF-β. In addition, cells were transfected with a second luciferase (Renilla) gene which was not driven by a TGF-β responsive promoter and was used as a toxicity control.
96 well microplates were seeded, using a multidrop apparatus, with the stably transfected cell line at a concentration of 35000 cells per well in 200 μl of serum-containing medium. These plates were placed in a cell incubator.
18 to 24 hours later (Day 2), cell-incubation procedure was launched. Cells were incubated with TGF-β and a candidate compound at concentrations in the range 50 nM to 10 μM (final concentration of DMSO 1%). The final concentration of TGF-β (rhTGFβ-1) used in the test was 1 ng/mL. Cells were incubated with a candidate compound 15-30 mins prior to the addition of TGF-β. The final volume of the test reaction was 150 μl. Each well contained only one candidate compound and its effect on the PAI-1 promoter was monitored.
Columns 11 and 12 were employed as controls. Column 11 contained 8 wells in which the cells were incubated in the presence of TGF-β, without a candidate compound. Column 11 was used to determine the ‘reference TGF-β induced firefly luciferase value’ against which values measured in the test wells (to quantify inhibitory activity) were compared. […]
12 to 18 hours later (day 3), the luciferase quantification procedure was launched. […] Following agitation (15 to 30 mins), luciferase activities of the plates were read in a dual-injector luminometer (BMG lumistar). For this purpose, 50 μl of luciferase assay reagent and 50 μl of ‘Stop & Glo’ buffer were injected sequentially to quantify the activities of both luciferases. […] For each of the compounds tested, a concentration response curve was constructed from which an IC50 value was determined graphically.

Compound	IC50 [1] [µM]	IC50 ([2]; Homo sapiens) [µM]	IC50 ([1]; fluorescence polarization, 10 nM ALK5, 1 nM labelled ligand, read-out: ALK5 receptor modulator activity (IC50)) [µM]	IC50 [2] [µM]
Cc1cccc(-c2nc(C(C)C)[nH]c2-c2ccnc(-c3ccc(C(=O)NC4CCOCC4)cc3)c2)n1 [Example 96, N-(tetrahydropyran-4-yl)-4-(4-{2-isopropyl-5-[6-methyl-pyridin-2-yl]-1H-imidazol-4-yl}-pyridin-2-yl)-benzamide]	0.025	< 0.014		
Cc1cccc(-c2[nH]c(C(C)(C)C)nc2-c2ccnc(-c3ccc(N4CCOCC4)cc3)c2)n1 [Example 86, 4-{4-[4-(2-tert-Butyl-5-{6-methyl}-pyridin-2-yl-1 H-imidazol-4-yl)-pyridin-2-yl]-phenyl}-morpholine]			0.034	0.183

From patent US20050245520A1, “2-Phenylpyridin-4-yl derivatives as alk5 inhibitors” (priority 2002, published 2005)
